Source: patent publication US5756480A, “Treatment of hyperandrogenic conditions” (Merck & Co., Inc., priority 1996, dated 1998)
“Also recorded” adds a separate entry of the source. Where two headings read alike, the source gives them in different places.

How the values were obtained:
type 2 5α-reductase = molecular target: T1, type 2 5α-reductase (Homo sapiens, UniProt P31213); experiment: Progress curves of DHT formation, slow-binding inhibition of baculovirus-expressed type 2 5α-reductase; type: biochemical
T1 construct: made in house
T1 sequence (P31213 1-254): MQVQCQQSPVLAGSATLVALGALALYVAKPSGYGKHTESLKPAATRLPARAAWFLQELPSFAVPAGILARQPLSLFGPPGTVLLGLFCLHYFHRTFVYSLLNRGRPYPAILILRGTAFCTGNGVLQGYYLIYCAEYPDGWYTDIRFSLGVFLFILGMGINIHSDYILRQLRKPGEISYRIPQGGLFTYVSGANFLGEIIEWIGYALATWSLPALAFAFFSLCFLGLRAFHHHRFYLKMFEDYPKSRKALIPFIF
Method: Ethanol is included at 1% final concentration as the vehicle for introduction of inhibitors. The rate of production of [^3 H]dihydrotestosterone is approximately constant for up to 2 hours or 10% consumption of substrate. A unit of enzyme activity was defined as 1 pmol product/min, and is equal to 444 fmol enzyme under these conditions.
After quenching the reactions with an equal volume, or more, of water containing 1% trifluoroacetic acid, the [^3 H]dihydrotestosterone is isolated by direct injection onto a reverse phase C-18 column (Vydac, 4.6×250 mm, 300 Å, 5 micron), which is run in an isocratic system of 40% water (containing 0.1% trifluoroacetic acid) and 60% methanol at 1 mL/min. When tissue extracts are the source of enzyme, the quenched reactions are clarified by centrifugation at 10,000×g before analysis. Retention times are ~13 min for testosterone and ~20 min for dihydrotestosterone. The effluent containing the [^3 H]dihydrotestosterone peak (6 mL) is collected in a liquid scintillation vial and counted with AQUASOL 2 (14 mL, New England Nuclear) with an efficiency of 0.309. The assay is completely automated using a SUN SPARKSTATION 2 computer interfaced to a ZYMARK robot and ancillary equipment.
The native human enzyme was from prostate (type 2) or scalp (type 1) tissue, and the recombinant human enzymes were produced by the baculovirus expression system of Andersson, et al. (Chan, H. K., Geissler, W. M., Andersson, S., Sex Hormones and Antihormones in Endocrine Dependent Pathology: Basic and Clinical Aspects, M. Motta and M. Serio, eds., Elsevier Science 1994). […] Enzyme concentrations were determined by titration with finasteride, or [^3 H]finasteride, or from catalytic activity using kcat and Km values.
Alternatively, fractions may be collected and the samples counted on a scintillation counter. […] The time courses were fit to an integrated first-order rate equation (Equation 1), where A is product concentration, vo is the initial velocity, vs is the infinite-time velocity, and kobs is the first-order rate constant for progression of the enzyme between the two equilibrium states. […] (Ki=koff /kon).
A=vs t+(vo -vs)(1-e-^k obs^t)/kobs +Ao Equation

[1] = tested on: human prostate (type 2) isozyme; settings: cited from earlier work
[2] = tested on: dihydrotestosterone levels; settings: circulating finasteride concentrations comparable to Ki = 26 nM; result in words; cited from earlier work
[3] = tested on: human prostate (type 2) 5α-reductase; settings: result in words, cited from earlier work
[4] = tested on: human skin (type 1) isozyme; settings: cited from earlier work
type 1 5α-reductase = experiment: Kinetic constants of type 1 5α-reductase; type: biochemical, human
Description: (§1) Ethanol is included at 1% final concentration as the vehicle for introduction of inhibitors. […] A unit of enzyme activity was defined as 1 pmol product/min, and is equal to 444 fmol enzyme under these conditions.
(§2) The molecular weight was taken to be about 30,000 in estimating enzyme purity.

[5] = substrate: C[C@]12CC[C@H]3[C@@H](CCC4=CC(=O)CC[C@@]43C)[C@@H]1CC[C@@H]2O; experiment: purified protein, by the assay type; settings: other: baculovirus-expressed type 2 enzyme, pH 7.2, 37° C.
Description: as §1, §2

Question: With `CCN(CC)C(=O)[C@H]1CC[C@H]2[C@@H]3CC[C@H]4OC(=O)C=C[C@]4(C)[C@H]3CC[C@]12C` [L-682,299, 17β-(N-diethyl)carbamoyl-4-oxa-5α-androst-1-en-3-one] as the molecule, how does the Ki (type 2 5α-reductase) read?
Answer: < 0.1 nM

Question: And the “velocity at infinite-time (vs)” value (type 2 5α-reductase; 20 nM inhibitor, pH 7.2, 37° C.)?
Answer: essentially zero

Question: And the inhibition over time (type 2 5α-reductase; 20 nM inhibitor, pH 7.2, 37° C., result in words)?
Answer: the inhibition developed slowly with time and resulted in total inhibition of the enzyme

Question: And the kon at 0.02 µM (type 2 5α-reductase; pH 7.2, read-out: second-order rate constant for binding to the type 2 isozyme)?
Answer: 56000 M⁻¹ s⁻¹

Question: Which “rate constant for binding to the human prostate isozyme” value ([1]; Faller et al. 1993) does the source give for `CC(C)(C)NC(=O)[C@H]1CC[C@H]2[C@@H]3CC[C@H]4NC(=O)C=C[C@]4(C)[C@H]3CC[C@]12C` [Finasteride, 17β-(N-tert-butylcarbamoyl)-3-oxo-4-aza-5α-androst-1-ene-3-one] here?
Answer: 270000 M⁻¹ s⁻¹

Question: And the “binding behavior / reversibility” value ([1]; human prostate (type 2) isozyme, result in words)?
Answer: slow-binding inhibitors; also recorded: essentially irreversible enzyme-inhibitor complex

Question: What about the Ki ([1]; printed as Ki <<1 nM, essentially irreversible complex, Faller et al. 1993) of the same molecule?
Answer: < 1 nM

Question: What about the “reduction of dihydrotestosterone levels” value [2] of the same molecule?
Answer: reduced levels of dihydrotestosterone to values approaching those found in individuals genetically deficient in the prostate isozyme

Question: What about the “inhibition of human prostate (type 2) enzyme” value [3] of the same molecule?
Answer: potent inhibitor of the human prostate enzyme

Question: What about the “inhibition of human prostate (type 2) enzyme” value ([3]; listed as finasteride) of the same molecule?
Answer: potently inhibited by finasteride

Question: And the “inhibition of human skin (type 1) isozyme” value ([4]; result in words, listed as finasteride)?
Answer: relatively insensitive to finasteride; also recorded: not a significant inhibitor of human skin (type 1) isozyme at doses employed in the treatment of BPH

Question: What about the “second-order rate constant for formation of the complex” value ([4]; type 1, Tian et al. 1994) of the same molecule?
Answer: 4000 M⁻¹ s⁻¹

Question: With `C[C@]12CC[C@H]3[C@@H](CCC4=CC(=O)CC[C@@]43C)[C@@H]1CC[C@@H]2O` [testosterone] as the molecule, how does the Km (type 1 5α-reductase) read?
Answer: 7 µM

Question: And the “kcat for the type 1 enzyme” value (type 1 5α-reductase)?
Answer: 1.4 s⁻¹

B1: type 2 5α-reductase (Homo sapiens) (protein)
chain: MQVQCQQSPVLAGSATLVALGALALYVAKPSGYGKHTESLKPAATRLPARAAWFLQELPSFAVPAGILARQPLSLFGPPGTVLLGLFCLHYFHRTFVYSLLNRGRPYPAILILRGTAFCTGNGVLQGYYLIYCAEYPDGWYTDIRFSLGVFLFILGMGINIHSDYILRQLRKPGEISYRIPQGGLFTYVSGANFLGEIIEWIGYALATWSLPALAFAFFSLCFLGLRAFHHHRFYLKMFEDYPKSRKALIPFIF
Question: Which Km [5] does the source give for B1 here?
Answer: 0.0246 ± 0.0007 µM

Question: And the kcat [5]?
Answer: 0.075 ± 0.006 s⁻¹

Question: What about the kcat/Km [5] of the same molecule?
Answer: 2.99±0.32×10^6 M^-1 s^-1
